Data published in publication PMC3345099 (Journal of Immunology (Baltimore, Md. : 1950), 2012).
Residues, ends and D or L forms follow the SMILES beside them. No end group written: not given here.

Assays:
Assay in all cases: In vitro radiolabeled competitive HLA binding assay
[1] = target: HLA B*07:02 (purified MHC class I) (Homo sapiens, UniProt P01889)
[2] = target: HLA A*26:01 (purified MHC class I) (Homo sapiens, UniProt P04439, A114D/A173T/A270S/D101N/D185E/E277Q/E87N/F33Y/G231S/I121R/I218V/K168Q/L180W/L300P/L318F/P208A/P217A/Q86R/Q94H/R138Q/S129P/T187R/T323A/T345S/V100A/V358M)
[3] = target: HLA A*02:01 (purified MHC class I) (Homo sapiens, UniProt P04439, D140Y/D185E/D98H/E176V/E277Q/G131W/G231S/I119V/I121R/I166T/I218V/L300P/L318F/N151K/N90K/P208A/P217A/Q86G/Q94H/R138H/R169H/T345S)
[4] = target: HLA B*40:01 (purified MHC class I) (Homo sapiens, UniProt P01889, A65T/A93T/A95T/D138N/D98Y/E176V/E69K/N87E/Q56L/Q94N/R180L/S121R/S35A/S48T/T167S/V36M/W171L/Y33H/Y91S)
[5] = target: HLA B*40:02 (purified MHC class I) (Homo sapiens, UniProt P01889, A65T/A93T/A95T/D138N/D201E/D98Y/E176V/E204Q/E69K/K202T/N87E/Q56L/Q94N/R180L/S48T/Y33H/Y91S)
[6] = target: HLA B*08:01 (purified MHC class I) (Homo sapiens, UniProt P01889, A93T/A95T/D138N/E176V/E187T/K202T/Q94N/R180D/S35A/V36M/Y33D/Y91F)

Q: How did the IC50 [1] turn out when `CC[C@H](C)[C@H](N)C(=O)N1CCC[C@H]1C(=O)N[C@@H](Cc1ccccc1)C(=O)N[C@@H](Cc1ccc(O)cc1)C(=O)NCC(=O)N[C@@H](CCCCN)C(=O)N[C@@H](C)C(=O)N[C@H](C(=O)O)[C@@H](C)CC` was run?
A: 497 nM

Q: Which IC50 [2] does the source give for `CSCC[C@H](NC(=O)[C@H](CO)NC(=O)[C@H](CS)NC(=O)[C@H](CS)NC(=O)[C@@H](NC(=O)[C@@H](NC(=O)[C@@H](N)CC(=O)O)C(C)C)C(C)C)C(=O)N[C@@H](CO)C(=O)N[C@@H](Cc1ccc(O)cc1)C(=O)O` (H-DVVCCSMSY-OH) here?
A: 25 nM

Q: With RLWHYPCTV as the compound, how does the IC50 [3] read?
A: 12 nM

Q: What does the source list for LEDRDRSEL?
A: IC50 [4]: 426 nM; IC50 [5]: 4270 nM

Q: For GVDPNIRTGV, which IC50 [3] is on record?
A: 351 nM

Q: For HPALVFDIT, which IC50 [1] is on record?
A: 160 nM

Q: VLSDFKTWL was tested. Which IC50 [3] did it give?
A: 305 nM

Q: With `CC(C)C[C@H](NC(=O)[C@H](CCC(=O)O)NC(=O)[C@H](CC(=O)O)NC(=O)[C@H](CS)NC(=O)[C@H](CCCCN)NC(=O)[C@H](CCCCN)NC(=O)[C@H](CCCCN)NC(=O)[C@H](CO)NC(=O)[C@@H](N)Cc1c[nH]cn1)C(=O)O` as the compound, how does the IC50 [6] read?
A: 764 nM

Q: FLVGQLFTF was tested. Which IC50 [3] did it give?
A: 67 nM

Q: For GIDPNIRTGV, which IC50 [3] is on record?
A: 722 nM

Q: For `CC(C)C[C@H](NC(=O)[C@H](C)NC(=O)[C@H](CC(C)C)NC(=O)[C@@H](N)CC(C)C)C(=O)N[C@@H](CC(C)C)C(=O)N[C@@H](CO)C(=O)N[C@@H](CS)C(=O)N[C@@H](CC(C)C)C(=O)N[C@H](C(=O)N[C@H](C(=O)O)C(C)C)[C@@H](C)O`, which IC50 [3] is on record?
A: 357 nM

Q: SLLAPGAKQNV was tested. Which IC50 [3] did it give?
A: 513 nM
